Source: ChEMBL document CHEMBL1201862, “PubChem BioAssay data set” (2004)
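Step 1: Grow cells in 96-well plates. Step 2: Expose to compound for 48 hours at 5 concentrations. Step 3: Interpolate endpoints linearly; if unreached, use highest concentration. Here, GI50 denotes the concentration required for 50% inhibition of growth.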 The source made the active and inactive calls. Rule as the data show it: active = GI50 up to about 1.1 µM and inactive = higher.

How the values were obtained:
Assay in all cases: inhibition of tumour cell growth, NCI panel, 48 h
[1] = system: 786-0
[2] = system: A498
[3] = system: COLO 205
[4] = system: DU-145
[5] = system: HCT-116
[6] = system: HOP-62
[7] = system: HT-29
[8] = system: KM12
[9] = system: MDA-MB-231
[10] = system: Malme-3M
[11] = system: OVCAR-3
[12] = system: OVCAR-8
[13] = system: RPMI-8226
[14] = system: RXF 393
[15] = system: SF-268
[16] = system: SK-MEL-2
[17] = system: SW-620
[18] = system: TK-10
[19] = system: UACC-257
[20] = system: UACC-62

Structure (SMILES)	GI50 [1]	GI50 [2]	GI50 [3]	GI50 [4]	GI50 [5]	GI50 [6]	GI50 [7]	GI50 [8]	GI50 [9]	GI50 [10]	GI50 [11]	GI50 [12]	GI50 [13]	GI50 [14]	GI50 [15]	GI50 [16]	GI50 [17]	GI50 [18]	GI50 [19]	GI50 [20]
COc1ccc(/C=C2\N/C(=N/N)N=C2Cl)cc1	> 100 µM (inactive)	> 100 µM (inactive)	> 100 µM (inactive)	> 100 µM (inactive)	> 100 µM (inactive)	> 100 µM (inactive)	> 100 µM (inactive)	> 100 µM (inactive)	> 100 µM (inactive)	> 100 µM (inactive)	> 100 µM (inactive)	> 100 µM (inactive)	> 100 µM (inactive)	> 100 µM (inactive)	> 100 µM (inactive)	> 100 µM (inactive)	> 100 µM (inactive)	> 100 µM (inactive)	> 100 µM (inactive)	
CCCCCCCCCCCCCCCCOCC(Cl)CP(=O)(O)OP(=O)(O)OCC1OC(n2cnc3c(N)ncnc32)C(O)C1O (stereo not given)	> 100 µM (inactive)	> 100 µM (inactive)	> 100 µM (inactive)	> 100 µM (inactive)	67 µM (inactive)	> 100 µM (inactive)	> 100 µM (inactive)	> 100 µM (inactive)	> 100 µM (inactive)	> 100 µM (inactive)	> 100 µM (inactive)	> 100 µM (inactive)		61.8 µM (inactive)	> 100 µM (inactive)	> 100 µM (inactive)	> 100 µM (inactive)	> 100 µM (inactive)	> 100 µM (inactive)	> 100 µM (inactive)
COc1ccc(CC(C#N)c2cc(OC)c(OC)c(OC)c2)cc1 (stereo not given)	0.125 µM (active)	0.179 µM (active)	0.029 µM (active)	0.0422 µM (active)	0.0466 µM (active)	0.0869 µM (active)	0.029 µM (active)	0.0194 µM (active)	0.0561 µM (active)	0.0361 µM (active)	0.0279 µM (active)	0.135 µM (active)	0.0741 µM (active)	0.0575 µM (active)	0.204 µM (active)	0.0775 µM (active)	0.0236 µM (active)		0.0356 µM (active)	0.0275 µM (active)
CC(=O)OC12CC[N+]3(C)CCCCC3C1=Nc1ccccc12 (stereo not given)	> 100 µM (inactive)	80.2 µM (inactive)	61 µM (inactive)	> 100 µM (inactive)	> 100 µM (inactive)	> 100 µM (inactive)	63.8 µM (inactive)	82.8 µM (inactive)	> 100 µM (inactive)	> 100 µM (inactive)	> 100 µM (inactive)	> 100 µM (inactive)	> 100 µM (inactive)	> 100 µM (inactive)	> 100 µM (inactive)	> 100 µM (inactive)	> 100 µM (inactive)	> 100 µM (inactive)	> 100 µM (inactive)	> 100 µM (inactive)
COc1cc2c(cc1O)C1Cc3ccc(OC)c(O)c3C(C2)N1C (stereo not given)	> 100 µM (inactive)	> 100 µM (inactive)	> 100 µM (inactive)	> 100 µM (inactive)	> 100 µM (inactive)	92.9 µM (inactive)	71 µM (inactive)	> 100 µM (inactive)	41.5 µM (inactive)	> 100 µM (inactive)	> 100 µM (inactive)	> 100 µM (inactive)	> 100 µM (inactive)	> 100 µM (inactive)	> 100 µM (inactive)	> 100 µM (inactive)	> 100 µM (inactive)	> 100 µM (inactive)	> 100 µM (inactive)	> 100 µM (inactive)
COc1cccc2c1-c1c(OC)cccc1SS2	18.2 µM (inactive)	8.75 µM (inactive)	20 µM (inactive)	28.9 µM (inactive)	18.2 µM (inactive)	47.2 µM (inactive)	17.3 µM (inactive)	34 µM (inactive)	23.7 µM (inactive)	18.1 µM (inactive)	16.3 µM (inactive)	25.9 µM (inactive)	11.4 µM (inactive)	17.5 µM (inactive)	22.6 µM (inactive)	17.5 µM (inactive)	20.4 µM (inactive)	21.9 µM (inactive)	11.6 µM (inactive)	20.1 µM (inactive)
CC(C)=CCC/C(C)=C/Cc1c2c(c3oc(-c4ccc(O)c(O)c4)c(O)c(=O)c3c1O)C=CC(C)(C)O2	1.85 µM (inactive)	6.32 µM (inactive)	1.64 µM (inactive)	2.24 µM (inactive)	2.57 µM (inactive)	4.45 µM (inactive)	2.71 µM (inactive)	3.45 µM (inactive)	5.74 µM (inactive)	0.665 µM (active)	1.32 µM (inactive)	2.05 µM (inactive)	1.82 µM (inactive)	7.71 µM (inactive)	3.56 µM (inactive)	6.58 µM (inactive)		5.24 µM (inactive)	5.22 µM (inactive)	5.31 µM (inactive)
Cc1ccc(-c2cs/c(=N\c3ccccc3)n2NC(=O)c2ccncc2)cc1	48 µM (inactive)	> 75.2 µM (inactive)	29.8 µM (inactive)	56.2 µM (inactive)	31.8 µM (inactive)	39.4 µM (inactive)	21 µM (inactive)	31.4 µM (inactive)	51.5 µM (inactive)	43.3 µM (inactive)	35.6 µM (inactive)	25.8 µM (inactive)	22.6 µM (inactive)	35.2 µM (inactive)	42.1 µM (inactive)	28.5 µM (inactive)	35.8 µM (inactive)	> 54.7 µM (inactive)	37.3 µM (inactive)	20.5 µM (inactive)
COc1ccc(/C=N/N=C(\N)NO)c(OC)c1OC	18.5 µM (inactive)	26.7 µM (inactive)	19.1 µM (inactive)	12.8 µM (inactive)	20.1 µM (inactive)	32.7 µM (inactive)	20.8 µM (inactive)	4.69 µM (inactive)	65.2 µM (inactive)	26.5 µM (inactive)	16.4 µM (inactive)	15 µM (inactive)	31.6 µM (inactive)	30.1 µM (inactive)	24.7 µM (inactive)	25.6 µM (inactive)	46.2 µM (inactive)	71.1 µM (inactive)		20.6 µM (inactive)
CC1CC/C(=C\c2ccc(F)cc2)C2=C1C(c1ccc(F)cc1)NC(=S)N2 (stereo not given)	63.4 µM (inactive)	30.5 µM (inactive)	30.6 µM (inactive)	46.8 µM (inactive)	32.9 µM (inactive)		29 µM (inactive)	24.7 µM (inactive)	47.8 µM (inactive)	36.7 µM (inactive)	33.8 µM (inactive)	86.7 µM (inactive)	18.1 µM (inactive)	25.2 µM (inactive)	91.4 µM (inactive)	28.2 µM (inactive)	80.4 µM (inactive)	79.3 µM (inactive)	43.2 µM (inactive)	> 100 µM (inactive)
O=C(/C=C1\Nc2ccc([N+](=O)[O-])cc2N=C1NC12CC3CC(CC(C3)C1)C2)c1ccccc1	4.21 µM (inactive)	3.85 µM (inactive)	> 10 µM (inactive)	> 10 µM (inactive)		> 10 µM (inactive)	> 10 µM (inactive)	> 10 µM (inactive)	4.7 µM (inactive)	> 10 µM (inactive)	> 10 µM (inactive)	9.64 µM (inactive)		6.53 µM (inactive)	> 10 µM (inactive)	> 10 µM (inactive)	> 10 µM (inactive)	9.91 µM (inactive)	> 10 µM (inactive)	
CC(=O)O[C@H]1[C@@H](OC2CCCC2(c2ccccc2)c2ccccc2)O[N+]([O-])=C[C@@H]1c1ccccc1 (stereo not given in full)	1.86 µM (inactive)	8.22 µM (inactive)	14.6 µM (inactive)	5.75 µM (inactive)	3.24 µM (inactive)	16.6 µM (inactive)	2.51 µM (inactive)	11.3 µM (inactive)	12.6 µM (inactive)		8.87 µM (inactive)	2.47 µM (inactive)	2.01 µM (inactive)	2.82 µM (inactive)	5.01 µM (inactive)	8.57 µM (inactive)	3.14 µM (inactive)	9.71 µM (inactive)	9.25 µM (inactive)	4.66 µM (inactive)
N#CC1=C(N)N2C(=O)/C(=C/c3ccccc3O)N=C2S1	> 100 µM (inactive)	> 100 µM (inactive)	> 100 µM (inactive)	> 100 µM (inactive)	68.1 µM (inactive)	> 100 µM (inactive)	37.7 µM (inactive)	> 100 µM (inactive)	> 100 µM (inactive)	> 100 µM (inactive)	66.2 µM (inactive)	> 100 µM (inactive)	30.6 µM (inactive)	93.3 µM (inactive)	41.1 µM (inactive)	> 100 µM (inactive)	> 100 µM (inactive)	> 100 µM (inactive)	> 100 µM (inactive)	
CCOc1ccccc1-c1nc2c(s1)C(=O)c1ccccc1C2=O	16.9 µM (inactive)	15.9 µM (inactive)	24.7 µM (inactive)	19.4 µM (inactive)	15.2 µM (inactive)	15.4 µM (inactive)		15.4 µM (inactive)	2.84 µM (inactive)	3.68 µM (inactive)	2.25 µM (inactive)		7.26 µM (inactive)	16 µM (inactive)	12.6 µM (inactive)	15.7 µM (inactive)	8 µM (inactive)	19.3 µM (inactive)	12.9 µM (inactive)	3.78 µM (inactive)
CSc1nc2c(c(=O)[nH]1)N=C(c1ccccc1)CC(c1ccccc1)N2 (stereo not given)	38.5 µM (inactive)	83.4 µM (inactive)	41.7 µM (inactive)	30.1 µM (inactive)	29.6 µM (inactive)	38.8 µM (inactive)	30.4 µM (inactive)	14.1 µM (inactive)	18.5 µM (inactive)	23.4 µM (inactive)	39 µM (inactive)	28 µM (inactive)	28.5 µM (inactive)	34.7 µM (inactive)		27.8 µM (inactive)	50.8 µM (inactive)		56.5 µM (inactive)	23.6 µM (inactive)
